Assay results published in patent US10213527B2, “Functionalized titanium binding peptides and implants coated with same” (Ben-Gurion University of the Negev Research and Development …, priority 2012, dated 2019).
“Also recorded” adds a separate entry of the source. Non-standard residues stand in square brackets, D forms with d. Residues, ends and D or L forms follow the SMILES beside them. No end group written: not given here. pS = N[C@@H](COP(=O)(O)O)C(=O)O

Legend:
[1] = Adsorption isotherm onto TiO2 particles, Sips equation fitting; format: binding; conditions: 10 mM TBS pH 7.4, 1 h room temperature; Sips fit
Method: The adsorption of all three peptides to TiO2 particles were measured with peptides solution in a range of concentrations from 0.002 to 0.524 mM in 10 mM TBS solution. TiO2 particles were suspended in TBS 10 mM, pH 7.4, to a final concentration of 1.8 mg/ml. To each test tube containing 0.5 ml of peptide at different concentrations, 0.5 ml of TiO2 particles solution was added. The samples were continuously mixed with a tube rotator for 1 h at room temperature. To precipitate the TiO2 particles, the test tubes were centrifuged at 5000 rpm for 3 minutes and the absorption of the supernatant was measured at 280 nm using a microplate-reader (BioTek instruments). Peptide concentration was determined based on calibration curve of each peptide prepared in TBS solution. In order to describe the adsorption of molecules on TiO2 particles surface the sips equation, also known as the Langmuir-Freundlich equation (1), was used:
[formula] where S is the amount of adsorbed molecules (mol m^−2), Smax is the maximum amount of molecules adsorbed (mol m^−2), C is their concentration is solution at equilibrium (mM), k is the association coefficient (M^−1) and α is the constant representing this distribution.^30
Peptide adsorption and desorption conditions were characterized by HPLC. A column was packed with micrometer size particles of the TiO2 anatase phase (see Materials and Methods). […]

[2] = Calcium-phosphate adsorption on peptide coated TiO2 surfaces (XPS); conditions: Ca—P solution 24 h at 37° C.; FIG. 17B
Method: Surfaces were incubated in TBS solution for 45 min in room temperature, and then the surfaces were incubated in 0.4 mg ml^−1 peptide-TBS 10 mM solution for 1 hr at room temperature and were dried with nitrogen. Peptide coating were analyzed by XPS.
The ability to absorb calcium-phosphate (Ca—P) ions by the different peptide coatings were measured using Ca—P solution. The solution was prepared at physiological pH and contained K2HPO4 (1.0 mM), CaCl2.2H2O (2.5 mM), dissolved consecutively in deionized water at 37° C. and buffered at pH ˜7.4 using 50 mM Trizma™ base and an appropriate volume of 1M HCl. Coated surfaces were incubated in Ca—P solution at 37° C. for 24 h.
However it contradicts the β-cpSer adsorption isotherm result. This phenomenon can be explained by the different surface topography and surface area between TiO2 particles and TiO2 surface, adsorption surface area at adsorption isotherm experiment is 1.123 m^2 and the surface area is 10^−4 m^2. At small surface areas, the difference between peptides' adsorption cannot be observed. In order to examine the influence of the Glu tail on calcified mineralization process, titanium oxide surfaces were coated with pSer peptide or with the control peptides (cpSer or β-cpSer) and incubated for 24 hours inside calcium-phosphate solution (see Materials and Methods). Atomic concentrations of calcium and phosphorus were compared with titanium as measured by XPS.

[3] = Chromatography of PpSer on TiO2 anatase column (bicarbonate and NaOH elution gradients); format: binding
Description: Chromatography on TiO2 Surfaces: as described in Golan Gertler, Gideon Fleminger and Hanna Rapaport. Langmuir 2010, 26(9), 6457-6463, and further illustrated in FIG. 3. Stainless steel (4.6_50 mm) column was packed with TiO2 anatase (Sachtopore NP 10μ/100 A°, particle size/pore size respectively) suspended in methanol. The packed columns were washed consecutively with water and 0.1 M NaOH to desorb surface contaminants. The columns were then pre-equilibrated with the running buffer. Lyophilized peptides were dissolved in the running buffer (0.2 mg/mL) and centrifuged at 5000 g for 5 min prior to injection into the column to remove possible aggregates. The supernatants (100 μL) were injected on to the TiO2 column at a flow rate of 0.02 mL/min to attain 40 min retention time for adsorption. After 65 minutes, the flow rate was increased to 0.5 mL/min. Ten millimolar Tris and phosphate buffer solutions, pH 7.4, were used as adsorption (running) media. In addition, these buffers complemented by 150 mM NaCl (TBS, PBS, respectively) were also examined. Elution was carried out by gradients of the following solutions applied consecutively to the column: 1 M NaCl, 80% acetonitrile, 200 mM sodium phosphate, and 0.1 M NaOH, monitored at 215-280 nm. The chromatograms were obtained at room temperature using 0.2 μm filtered (Millipore, Badford, Mass.) solutions.
The peptide dissolved in two different running buffer, Tris buffer saline (TBS) and sodium bicarbonate saline (BCS). The affinity of functional groups to TiO2 from previous works was known to be PO4^−3>HCO3^−>COO^−. (The diagonal line in the chromatography is the elution gradient: 0-200 mM sodium bicarbonate & 0-0.1M NaOH).
Peptides that bind to TiO2 only through Glutamic acid functional groups will elute in BC gradient, however peptides that bind to TiO2 through pSer functional groups will elute in the NaOH gradient.
The idea behind using BCS as running buffer is to block the surface with carbonate ions before the peptide injection.

[4] = Adsorption of sodium phenyl phosphate dibasic to TiO2 microparticles (solution depletion); format: binding; parameters: Difference in concentration of the solution between the initial and the final one: unit: mg/ml; conditions: TiO2 microparticles 1.8 mg/ml, TBS
Method: Several solutions of sodium phenyl phosphate dibasic with different concentrations, dissolved in the same TBS, were allowed to adsorb to TiO2 microparticles (1.8 mg/ml in 1 ml). Table 6, herein below lists the initial concentrations and the difference in concentration of the solution between the initial and the one following adsorption. According to Table 6, the phenyl phosphate adsorbs only at concentrations lower than 0.25 mg/ml probably because at higher concentrations the compound undergoes some aggregation and stays only in the solution. This adsorption behavior is unusual and therefore no binding affinity constants were determined.

[5] = HPLC chromatography on TiO2 anatase microparticle column (Example 2); format: binding; conditions: 0.4 mg/ml in TBS (10 mM, pH=7.4) loading buffer
Method: A stainless steel (4.6×50 mm) column was packed with TiO2 anatase (Sachtopore NP 10μ/100 Å, particle size/pore size respectively) suspended in methanol. The packed column was washed consecutively with water and 0.1 M NaOH to desorb surface contaminants. The column was then pre-equilibrated with the loading/running buffer. The chromatographic process was performed on a HPLC system (Algient Technologies, 1260 Infinity, Germany). Peptides dissolved in the loading/running buffer (0.4 mg/ml) were sonicated for 10 minutes and centrifuged at […] for 8 minutes and were injected to the TiO2 column at a flow rate of 0.02 ml/min to attain ˜40 minutes retention time for adsorption. 10 mM tris buffered saline pH 7.4 (TBS) was used as adsorption/running media. After 65 minutes, the flow rate was increased to 0.5 ml/min. Elution was carried out by gradients of 200 mM sodium bicarbonate solution pH 7.4 and 0.1 M NaOH. Elution was monitored at 280 nm. All solutions were filtered using 0.2 μm filters (Millipore, Badford, Mass.).
Peptide adsorption and desorption conditions were characterized by HPLC. A column was packed with micrometer size particles of the TiO2 anatase phase (see Materials and Methods). Tris buffer saline (TBS), pH 7.4, served as a loading buffer. […]

[6] = BCS (sodium bicarbonate saline) running buffer, FIG. 7B

Pro-Ser(phos)-Ser(phos)-Phe-Trp-(Gly)3 (P[pS][pS]FWGGG) [β-cpSer]
Smax, maximum amount of molecules adsorbed to TiO2 surface [1]: 7.48E−7 mol · m^−2 | calcium and phosphate adsorbed by coated surfaces (atomic ratio of P and Ca to Ti) [2]: approximately the same calcium and phosphate concentrations

O=C(O)CC[C@H](NC(=O)[C@H](CCC(=O)O)NC(=O)[C@H](CCC(=O)O)NC(=O)[C@H](CCC(=O)O)NC(=O)[C@H](CCC(=O)O)NC(=O)CNC(=O)CNC(=O)CNC(=O)[C@H](Cc1c[nH]c2ccccc12)NC(=O)[C@H](COP(=O)(O)O)NC(=O)[C@H](Cc1c[nH]c2ccccc12)NC(=O)[C@H](COP(=O)(O)O)NC(=O)[C@@H]1CCCN1)C(=O)O [PpSer, Pro-pSer-Trp-pSer-Trp-(Gly)3-(Glu)5] (H-P[pS]W[pS]WGGGEEEEE-OH; N-terminus and C-terminus assumed)
fraction of the peptide able to displace the carbonate ions and bind TiO2 through pSer [3, 6]: ⅔ and two-thirds | fraction of the peptide that can't displace the carbonate ions, bonded to them, eluted at BC gradient [3, 6]: ⅓ and about one third | mode of binding to TiO2 on the column ([3]; TBS running buffer, 10 mM pH 7.4, FIG. 7A): bonded to TiO2 through pSer functional groups

O=P([O-])([O-])Oc1ccccc1.[Na+].[Na+] [sodium phenyl phosphate dibasic]
Difference in concentration of the solution between the initial and the final one ([4]; 0.0625 mg/ml in adsorbing solution): 0.02365 | Difference in concentration of the solution between the initial and the final one ([4]; 0.125 mg/ml in adsorbing solution): 0.02083 | Difference in concentration of the solution between the initial and the final one ([4]; 0.25 mg/ml in adsorbing solution): 0.008776 | Difference in concentration of the solution between the initial and the final one ([4]; 0.5 mg/ml in adsorbing solution): ~0 | Difference in concentration of the solution between the initial and the final one ([4]; 1 mg/ml in adsorbing solution): ~0 | concentrations at which the compound adsorbs to TiO2 microparticles [4]: lower than 0.25 mg/ml

Trp-Glu
adsorption to the oxide [5]: does not adsorb

Pro-pSer-Phe-pSer-Trp-(Gly)3 (P[pS]F[pS]WGGG) [cpSer, control peptide lacking the stretch of the Glu residues]
calcium and phosphate adsorbed by coated surfaces (atomic ratio of P and Ca to Ti) [2]: approximately the same calcium and phosphate concentrations

Pro-Ser(phos)-Phe-Ser(phos)-Trp-(Gly)3-(Glu)5 (P[pS]F[pS]WGGGEEEEE) [pSer]
calcium and phosphate adsorbed by coated surfaces (atomic ratio of P and Ca to Ti) [2]: significantly higher calcium and phosphate concentration; also recorded: adsorbs more Ca and P ions
